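How tested: cells in 96-well plates exposed to compound for 48 hours at five concentrations. GI50: concentration for 50% inhibition of growth.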 Calls of active or inactive are those of the source. Rule as the data show it: active = GI50 up to about 1.1 µM and inactive = higher.
What was measured:
Assay in all cases: inhibition of tumour cell growth, NCI panel, 48 h
SK-MEL-5 = system: SK-MEL-5
MDA-N = system: MDA-N
RXF 393 = system: RXF 393
OVCAR-4 = system: OVCAR-4
OVCAR-3 = system: OVCAR-3
786-0 = system: 786-0
SF-539 = system: SF-539
SN12C = system: SN12C
OVCAR-8 = system: OVCAR-8
SK-OV-3 = system: SK-OV-3
MDA-MB-435 = system: MDA-MB-435
RPMI-8226 = system: RPMI-8226
SR = system: SR
NCI/ADR-RES = system: NCI/ADR-RES
UO-31 = system: UO-31
HCC 2998 = system: HCC 2998
M14 = system: M14
MCF7 = system: MCF7
NCI-H460 = system: NCI-H460
SW-620 = system: SW-620

Measured: GI50

CCc1c2c(cc3c1CC1(C3)Cc3cc4c(c(C(=O)OC)c3C1)CCCC4)CCCC2 (centres undefined)
inactive: SK-MEL-5 > 100 µM | MDA-N > 100 µM | RXF 393 59.4 µM | OVCAR-4 > 100 µM | OVCAR-3 > 100 µM | 786-0 12.1 µM | SF-539 > 100 µM | SN12C > 100 µM | OVCAR-8 > 100 µM | SK-OV-3 > 100 µM | MDA-MB-435 > 100 µM | RPMI-8226 > 100 µM | SR 51.8 µM | NCI/ADR-RES > 100 µM | UO-31 > 100 µM | HCC 2998 > 100 µM | M14 > 100 µM | MCF7 > 100 µM

Cc1cn(CCOCCOC(=O)NC(CCCNC(=N)N)C(=O)O)c(=O)[nH]c1=O (centres undefined)
inactive: NCI-H460 > 100 µM | MDA-N > 100 µM | SW-620 > 100 µM | RXF 393 > 100 µM | OVCAR-4 > 100 µM | OVCAR-3 > 100 µM | 786-0 > 100 µM | SF-539 > 100 µM | SN12C > 100 µM | SK-OV-3 > 100 µM | MDA-MB-435 > 100 µM | RPMI-8226 > 100 µM | SR > 100 µM | NCI/ADR-RES 26.8 µM | UO-31 > 100 µM | HCC 2998 > 100 µM | M14 > 100 µM | MCF7 > 100 µM

CCCCC1Cc2ccccc2-c2nc3ccccc3n21 (centres undefined)
inactive: SK-MEL-5 14.6 µM | NCI-H460 14.3 µM | MDA-N 15.1 µM | SW-620 16.4 µM | RXF 393 15.5 µM | OVCAR-4 12.9 µM | OVCAR-3 15.2 µM | 786-0 25.2 µM | SF-539 19.6 µM | OVCAR-8 18 µM | SK-OV-3 20.5 µM | MDA-MB-435 17.1 µM | RPMI-8226 12.1 µM | SR 5.57 µM | NCI/ADR-RES 15.7 µM | UO-31 19.1 µM | HCC 2998 14.2 µM | M14 18.1 µM | MCF7 17.3 µM

O=c1c2cc(Cl)ccc2[nH]c2cc(O)cc(O)c12
inactive: SK-MEL-5 > 10 µM | NCI-H460 > 10 µM | MDA-N > 10 µM | SW-620 > 10 µM | RXF 393 > 10 µM | OVCAR-4 > 10 µM | OVCAR-3 8.55 µM | 786-0 > 10 µM | SF-539 > 10 µM | SN12C > 10 µM | OVCAR-8 > 10 µM | SK-OV-3 > 10 µM | MDA-MB-435 > 10 µM | RPMI-8226 > 10 µM | SR > 10 µM | NCI/ADR-RES > 10 µM | HCC 2998 > 10 µM | M14 > 10 µM | MCF7 > 10 µM
